{"source": "patent US20230144211A1", "about": "“ANTIFOLATE LINKER-DRUGS AND ANTIBODY-DRUG CONJUGATES” (Byondis B.V., priority 2020, published 2023)", "assay_in_all_cases": "In vitro cell viability assay (CellTiter-Glo, 6 days)", "key": {"[1]": {"tested_on": "FaDu cells", "assay_type": "cell-based", "details": "Homo sapiens, free antifolate drugs, Table 1d", "protocol": "(§1) FaDu, BxPC-3, HeLa, MV4-11, and RAJI cell lines were obtained from Deutsche Sammlung von Mikroorganismen und Zellkulturen (Leipzig, Germany). Jurkat NucLight Red cells were obtained from Essen BioScience Inc. (Ann Arbor, Mich., USA). SK-BR-3 and SK-OV-3 cells were cultured in McCoys 5A medium (Lonza; Walkersville, Md., USA) supplemented with 10% v/w Fetal Bovine Serum (FBS), Heat-inactivated (HI) (Gibco-Life Technologies; Carlsbad, Calif.) and 80 U/mL Pen/Strep (Gibco-Life Technologies), at 37° C. in a humidified incubator under 5% CO2 atmosphere. SW-620 cells were similarly maintained in RPMI 1640 medium (Lonza), containing 10% v/w FBS HI and 80 U/mL Pen/Strep. A-549 cells were similarly maintained in F-12K Nutrient Mixture (1×) (Gibco-Life Technologies) media supplemented with 80 U/mL Pen/Strep and 5% v/w FBS, which was Qualified (Q) (Gibco-Life Technologies). BT-474 and AU-565 cells were similarly maintained in RPMI 1640 medium (Lonza), containing 10% v/w FBS, which was Qualified (Q) (Gibco-Life Technologies), and 80 U/mL Pen/Strep. […] Jurkat NucLight Red cells were similarly maintained in RPMI 1640 medium (Lonza), containing 10% v/w FBS HI, 80 U/mL Pen/Strep and 0.5 μg/mL Puromycin (Gibco-Life Technologies). FaDu cells were cultured in EMEM medium (Lonza) supplemented with 10% v/w FBS HI (Gibco-Life Technologies), 1× GlutaMAX (Gibco-Life Technologies), and 80 U/mL Pen/Strep (Gibco-Life Technologies), at 37° C. in a humidified incubator under 5% CO2 atmosphere.\n(§2) After an overnight incubation, 10 serial log 10 dilutions of the free drugs were made in DMSO (Sigma-Aldrich). These free drug dose-response curves were 10-times further diluted in complete growth medium. For the ADCs according to the invention 10 serial log 10 dilutions were made in complete growth medium. 10 μL of a composition comprising a free drug or an ADC according to the invention was added to the assay plate (final DMSO content for free drugs was 1%). […] […] Percentage cell survival was calculated by dividing the measured luminescence for each free drug or ADC according to the concentration with the average mean of untreated cells (1% or 0.1% DMSO control (for free drugs) or 100% complete growth medium (for ADCs)) multiplied by 100.\n(§3) Curves were fitted by non-linear regression using the sigmoidal dose-response equation with variable slope (four parameters) using curve-fitting software (GraphPad Prism, version 9.4.0 for Windows, GraphPad, San Diego, Calif. or Electronic Laboratory Notebook (ELN) add-in BioAssay, version 19.1.0.0218, Perkin Elmer, Waltham, Mass.). Relative IC50 values were calculated as the concentration that gives a response halfway between bottom and top of the curve, when using a 4-parameter logistic fit. Data were reported as mean IC50 value of at least one experiment performed in duplicate."}, "[2]": {"tested_on": "BxPC-3 cells", "assay_type": "cell-based", "details": "Homo sapiens, free antifolate drugs, Table 1d", "protocol": "as §1, §2, §3"}, "[3]": {"tested_on": "SK-BR-3 cells", "assay_type": "cell-based, human", "details": "Homo sapiens, SK-BR-3, 24 h, free antifolate drugs, Table 1d", "outline": "(§4)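 Cells plated overnight, then given 10 serial log10 dilutions of free drug (1% final DMSO) or ADC in medium. After 6 days, CellTiter-Glo luminescence expressed as % of untreated control. IC50 taken as the midpoint of a 4-parameter logistic fit; mean of at least one experiment in duplicate.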"}, "[4]": {"tested_on": "Jurkat Clone E6-1 cells", "assay_type": "cell-based", "details": "Homo sapiens, free antifolate drugs, Table 1d", "protocol": "Human tumor cell lines SK-BR-3, SW-620, A-549, BT-474, Jurkat Clone E6-1, AU-565, and SK-OV-3 were obtained from American Type Culture Collection (Rockville, Md., USA). FaDu, BxPC-3, HeLa, MV4-11, and RAJI cell lines were obtained from Deutsche Sammlung von Mikroorganismen und Zellkulturen ([…], Germany). Jurkat NucLight Red cells were obtained from Essen BioScience Inc. (Ann Arbor, Mich., USA). SK-BR-3 and SK-OV-3 cells were cultured in McCoys 5A medium (Lonza; Walkersville, Md., USA) supplemented with 10% v/w Fetal Bovine Serum (FBS), Heat-inactivated (HI) (Gibco-Life Technologies; Carlsbad, Calif.) and 80 U/mL Pen/Strep (Gibco-Life Technologies), at 37° C. in a humidified incubator under 5% CO2 atmosphere. […]\nCells in complete growth medium were plated in 96-well plates (90 μL/well) and incubated at 37° C., 5% CO2 at the following cell densities: 6500 SK-BR-3, 4000 SW-620, 2500 A-549, 10000 BT-474, 3000 Jurkat Clone E6-1, 5000 AU-565, 1250 FaDu, 1250 BxPC-3, 1000 HeLa, 7500 MV4-11, 1000 RAJI, 3000 Jurkat NucLight Red, and 4000 SK-OV-3 cells per well. […] Percentage cell survival was calculated by dividing the measured luminescence for each free drug or ADC according to the concentration with the average mean of untreated cells (1% or 0.1% DMSO control (for free drugs) or 100% complete growth medium (for ADCs)) multiplied by 100. […]"}, "[5]": {"tested_on": "Jurkat NucLight Red cells", "assay_type": "cell-based, human", "details": "Homo sapiens, Jurkat, 24 h, free antifolate drugs, Table 1d", "outline": "as §4"}}, "data": [{"smiles": "Nc1ccc(C(=O)NCCC[C@H](NC(=O)c2ccc(CCc3cnc4nc(N)nc(N)c4n3)cc2O)C(=O)O)c(-c2nnn[nH]2)c1", "note": "[XT162, (S)-5-(4-Amino-2-(1H-tetrazol-5-yl)benzamido)-2-(4-(2-(2,4-diaminopteridin-6-yl)ethyl)-2-hydroxybenzamido)pentanoic acid]", "values": [{"measurement": "IC50", "setting": "[1]", "result": 0.44, "unit": "nM"}, {"measurement": "IC50", "setting": "[2]", "result": 0.78, "unit": "nM"}, {"measurement": "IC50", "setting": "[3]", "result": 0.86, "unit": "nM"}, {"measurement": "IC50", "setting": "[4]", "result": 0.78, "unit": "nM"}, {"measurement": "IC50", "setting": "[5]", "result": 0.66, "unit": "nM"}]}]}
